This note sets out measurements from patent US20090328239A1, “BLOOD VESSEL IMAGING AND USES THEREFOR” (Bio Tree Systems, Inc., priority 2006, published 2009).

Test [1] concerns human non-small cell lung tumor cell line (A549) xenotopic tumor. The test can be described thus: Vascular cast micro-CT analysis of blood vessel diameter distribution in xenotopic tumor model. The format is in vivo, mice (SCID). The following applies: 0.5 mg/kg i.p., vascular casts. As to the method: (§1) A tumor model can be generated by inoculating human non-small cell lung tumor cell line (A549 from ATCC, Inc.) subcutaneously in immunodeficient mice (SCID). SCID male mice (6-8 weeks old from Charles River Inc.) are inoculated subcutaneously in the lower back with a suspension of 1×10^6 human lung tumor cells (A549) in 0.2 ml of PBS. All mice are fed normal chow diet throughout the duration of the experiment. All mice weights are measured throughout the experiment. Tumor size is measured with calipers twice-a-week and tumor volume is calculated using the formula Length^2×Width×0.52. All mice are randomized into two treatment groups (approximately 10 mice per group) when the median tumor volume reaches approximately 500 mm^3. The treatment groups can be treated according to the following schedule using intraperitoneal (i.p.) administration of either a control composition or an anti-angiogenic compound. For example, different levels of an anti-angiogenic compound can be used and the results compared to a control group that is not treated with an anti-angiogenic compound (e.g., Avastin® available from Genentech, South San Francisco, Calif.). For example:
At the end-point, all mice are anesthetized and systemically perfused with a casting agent.
Perfusion with a casting agent, Mercox (available from Ladd Research, Williston, Vt.) can be performed as follows. An initial anticoagulation step for each animal is performed using an i.v. injection of heparin (10,000 U/ml, 0.3 cc/mouse). After 30 minutes, the animals are anesthetized. Each animal's heart is cannulated and the animal perfused with warm physiological saline at physiological pressure (with an open vein draining the organ or with an open vena cava). Perfusion is continued until the organ or animal is clear of blood. Mercox monomer is filtered through a 0.5 μm filter and a casting resin is prepared by mixing 8 ml Mercox, 2 ml methylmethacrylate, and 0.3 ml catalyst. The resin is infused through the same cannula until the onset of polymerization (the resin changes color to brown and emits heat, ˜10 min). The organ or animal is carefully immersed in a 60° C. water bath for 2 hours (or overnight in a sealed container). […] The resulting cast can be analyzed to identify one or more structural characteristics of interest.
(§2) Xenotopic mouse models obtained as described in Example 2 were treated with either a control solution of saline/PBS or an anti-angiogenic preparation of Avastin® at 0.5 mg/kg/i.p. as described above. At the end-point, vascular casts were prepared as described in Example 3 above and analyzed for two treated mice (both treated with Avastin® at 0.5 mg/kg/i.p.) and one control mouse. […]

For test [2] the test system is unchanged. The test can be described thus: Tumor volume in xenotopic tumor model (caliper measurement). The format is in vivo, mice (SCID). The following applies: 0.5 mg/kg i.p. twice a week; end-point 1.5 weeks after initial treatment; vs saline/PBS control. As to the method: as §1, with “For example, different levels of an anti-angiogenic compound can be used and the results compared to a control group that is not treated with an anti-angiogenic compound (e.g., Avastin® available from Genentech, South San Francisco, Calif.). For example:” left out
as §2

Consider “Avastin®: known monoclonal antibody against vascular endothelial growth factor (VEGF), angiogenesis inhibitor available from Genentech”, for which, in test [1] (treated vs control animals), the “Vessel population ratio between large (approximately 147-161 μm) and middle (approximately 33-77 μm) size vessels (FIG. 3)” value was “decreased”; the “Vessel population ratio between small (approximately 21-35 μm) and middle (approximately 35-49 μm) size vessels (FIG. 2)” value is listed as “decreased”. Further, the “Percentage of middle diameter sized vessels in treated tumors vs untreated tumors (FIG. 1)” value in test [1] (two treated mice vs one control mouse) is “higher percentage”. For the same substance, in test [1] (two treated mice vs one control mouse, bins 13.8 μm wide), the “Reduction in small diameter sized vessels in treated tumors vs untreated tumors (FIG. 1)” value worked out at 20%. For the same substance, the “Mean tumor volumes, treated vs control group at the end of the experiment” value in test [2] is recorded as “did not differ significantly”.
